# From US7022733B2, “Substituted 2-phenyl benzofurans as estrogenic agents” (Wyeth, priority 2001, dated 2006)
# Counter-ions that a name gives are not always drawn.
row,melting point,Compound
1,243 to 251 °C,"CC(=O)c1c(-c2ccc(O)cc2)oc2ccc(O)cc12 [Example 110, 1-[5-Hydroxy-2-(4-hydroxy-phenyl)-benzofuran-3-yl]-ethanone]"
2,166 to 168 °C,"CCOCc1cc(O)cc2cc(-c3ccc(O)cc3)oc12 [Example 7, 7-Ethoxymethyl-2-(4-hydroxy-phenyl)-benzofuran-5-ol]"
3,178 to 180 °C,"CCCc1cc(O)cc2cc(-c3ccc(O)cc3)oc12 (as salt: HCl) [Example 35, 2-(4-Hydroxy-phenyl)-7-propyl-benzofuran-5-ol]"
4,196 to 198 °C,"Oc1ccc(-c2cc3c(Br)c(O)ccc3o2)cc1 [Example 130, 4-Bromo-2-(4-hydroxy-phenyl)-benzofuran-5-ol]"
5,215 to 216 °C,"O=C(c1cc(O)cc2cc(-c3ccc(O)cc3)oc12)C(F)(F)F [Example 68, 2,2,2-Trifluoro-1-[5-hydroxy-2-(4-hydroxy-phenyl)-benzofuran-7-yl]-ethanone]"
6,231 to 234 °C,"COC(=O)C=Cc1cc(O)cc2cc(-c3ccc(O)cc3)oc12 [Example 59, 3-[5-Hydroxy-2-(4-hydroxy-phenyl)benzofuran-7-yl]-acrylic acid methyl ester]"
7,220 to 222 °C,"CCCOC(=O)c1cc(O)cc2cc(-c3ccc(O)cc3)oc12 [Example 37, 5-Hydroxy-2-(4-hydroxy-phenyl)-benzofuran-7-carboxylic acid propyl ester]"
8,275 °C (dec.),"NC(=O)C=Cc1cc(O)cc2cc(-c3ccc(O)cc3)oc12 [Example 61, 3-[5-Hydroxy-2-(4-hydroxyphenyl)-benzofuran-7-yl]-acrylamide]"
9,172 to 174 °C,"CC(C)(C)c1ccc2oc(-c3ccc(O)cc3)cc2c1 [Example 92, 4-(5-tert-Butyl-benzofuran-2-yl)-phenol]"
10,> 230 °C,"N#Cc1c(O)ccc2oc(-c3ccc(O)cc3)cc12 [Example 135, 5-Hydroxy-2-(4-hydroxy-phenyl)-benzofuran-4-carbonitrile]"
11,284 °C,"CC(C)(C#N)c1cc(O)cc2cc(-c3ccc(O)cc3)oc12 [Example 22, 2-[5-Hydroxy-2-(4-hydroxy-phenyl)-benzofuran-7-yl]-2-methyl-propionitrile]"
12,210 to 214 °C,"Oc1ccc(-c2cc3c(Cl)c(O)ccc3o2)cc1 [Example 131, 4-Chloro-2-(4-hydroxy-phenyl)-benzofuran-5-ol]"
13,> 300 °C,"O=C(O)c1ccc2oc(-c3ccc(O)cc3)cc2c1 [Example 143, 2-(4-Hydroxy-phenyl)-benzofuran-5-carboxylic acid]"
14,202 to 204 °C,"Oc1ccc(-c2cc3cc(F)ccc3o2)cc1 [Example 91, 4-(5-Fluoro-benzofuran-2-yl)-phenol]"
15,258 to 260 °C,"OCc1cc(O)cc2cc(-c3ccc(O)cc3)oc12 [Example 25, 7-Hydroxymethyl-2-(4-hydroxy-phenyl)-benzofuran-5-ol]"
16,266 to 269 °C,"Oc1ccc(-c2cc3cc(O)ccc3o2)c(-c2ccc(OCCN3CCCC3)cc2)c1 (as salt: hydrochloride) [Example 108, 2-[5-Hydroxy-4′-(2-pyrrolidin-1-yl-ethoxy)-biphenyl-2-yl]-benzofuran-5-ol]"
17,167 to 169 °C,"Cc1cc(O)ccc1-c1cc2cc(O)ccc2o1 [Example 80, 2-(4-Hydroxy-2-methyl-phenyl)-benzofuran-5-ol]"
18,260 to 262 °C,"O=C(O)c1cc(O)cc2cc(-c3ccc(O)cc3)oc12 [Example 24, 5-Hydroxy-2-(4-hydroxy-phenyl)-benzofuran-7-carboxylic acid]"
19,128 to 130 °C,"COc1ccc(-c2cc3cc(OC)cc(CO)c3o2)cc1 [Example 3, [5-Methoxy-2-(4-methoxy-phenyl)-benzofuran-7-yl]-methanol]"
20,175 to 177 °C,"Oc1ccc(-c2cc3cc(O)cc(CSc4ccccc4)c3o2)cc1 [Example 12, 2-(4-Hydroxy-phenyl)-7-phenylsulfanylmethyl-benzofuran-5-ol]"
21,260 to 266 °C,"Oc1ccc(-c2cc3cc(O)cc(-c4nnco4)c3o2)cc1 [Example 138, 2-(4-Hydroxy-phenyl)7-[1,3,4]oxadiazol-2-yl-benzofuran-5-ol]"
22,190 to 192 °C,"N#CSCc1cc(O)cc2cc(-c3ccc(O)cc3)oc12 [Example 15, 2-(4-Hydroxy-phenyl)-7-thiocyanatomethyl-benzofuran-5-ol]"
23,195 °C,"Oc1ccc(-c2cc3cc(O)ccc3o2)c(Br)c1 [Example 102, 2-(2-Bromo-4-hydroxy-phenyl)-benzofuran-5-ol]"
24,152 to 154 °C,"Oc1ccc(-c2cc3cc(F)cc(F)c3o2)cc1 [Example 94, 4-(5,7-Difluoro-benzofuran-2-yl)-phenol]"
25,165 to 171.68 °C,"COc1c(O)ccc2oc(-c3ccc(O)cc3)cc12 [Example 132, 2-(4-Hydroxy-phenyl)-4-methoxy-benzofuran-5-ol]"
26,195 to 197 °C,"CC(C)OCc1cc(O)cc2cc(-c3ccc(O)cc3)oc12 [Example 8, 2-(4-Hydroxy-phenyl)-7-isopropoxymethyl benzofuran-5-ol]"

row,melting point,Compound
1,186 to 188 °C,"COCc1cc(O)cc2cc(-c3ccc(O)cc3)oc12 [Example 6, 2-(4-Hydroxy-phenyl)-7-methoxymethyl-benzofuran-5-ol]"
2,186 to 187 °C,"Oc1ccc2oc(-c3cc(OCc4ccccc4)c(O)cc3-c3ccccc3)cc2c1 [Example 104, 2-(4-Benzyloxy-5-hydroxy-biphenyl-2-yl)-benzofuran-5-ol]"
3,125 to 127 °C,"CON(C)C(=O)c1cc(O)cc2cc(-c3ccc(O)cc3)oc12 [Example 119, 5-Hydroxy-2-(4-hydroxy-phenyl)-benzofuran-7-carboxylic acid methoxy-methyl-amide]"
4,218 to 222 °C,"Oc1ccc2oc(-c3ccc(O)c(F)c3)cc2c1 [Example 126, 2-(3-Fluoro-4-hydroxy-phenyl)-benzofuran-5-ol]"
5,217 °C,"CC(=NO)c1c(-c2ccc(O)cc2)oc2ccc(O)cc12 [Example 111, 1-[5-Hydroxy-2-(4-hydroxy-phenyl)-benzofuran-3-yl]-ethanone oxime]"
6,> 250 °C,"CC(C)OC(=O)c1cc(O)cc2cc(-c3ccc(O)cc3)oc12 [Example 36, 5-Hydroxy-2(4hydroxy-phenyl)-benzofuran-7-carboxylic acid Isopropyl ester]"
7,192 to 194 °C,"CC(C)c1cc(O)cc2cc(-c3ccc(O)cc3)oc12 [Example 118, 2-(4-Hydroxy-phenyl)-7-isopropyl-benzofuran-5-ol]"
8,182 to 184 °C,"C=Cc1cc(O)cc2cc(-c3ccc(O)cc3)oc12 [Example 67, 2-(4-Hydroxy-phenyl)-7-vinyl-benzofuran-5-ol]"
9,203 to 205 °C,"Oc1ccc(-c2cc3cc(Br)cc(Br)c3o2)cc1 [Example 95, 4-(5,7-Dibromo-benzofuran-2-yl)-phenol]"
10,181 to 183 °C,"CCSCc1cc(O)cc2cc(-c3ccc(O)cc3)oc12 [Example 11, 7-Ethylsulfanylmethyl-2-(4-hydroxy-phenyl)-benzofuran-5-ol]"
11,205 °C (dec.),"COc1cc(O)c(C=NO)c2cc(-c3ccc(O)cc3)oc12 [Example 72, 5-Hydroxy-2-(4-hydroxy-phenyl)-7-methoxy-benzofuran-4-carbaldehyde oxime]"
12,183 to 185 °C,"CC(C#N)c1cc(O)cc2cc(-c3ccc(O)cc3)oc12 (stereo not drawn) [Example 21, 2-[5-Hydroxy-2-(4-hydroxy-phenyl)-benzofuran-7-yl]-propionitrile]"
13,248 to 250 °C,"OCc1ccc2oc(-c3ccc(O)cc3)cc2c1 [Example 144, 4-(5-Hydroxymethyl-benzofuran-2-yl)-phenol]"
14,218 to 220 °C,"CCc1cc(O)cc2cc(-c3ccc(O)cc3)oc12 [Example 30, 7-Ethyl-2-(4-hydroxy-phenyl)-benzofuran-5-ol]"
15,215 to 217 °C,"Oc1ccc(-c2cc3c(Br)c(O)cc(Br)c3o2)cc1 [Example 63, 4,7-Dibromo-2-(4-hydroxy-phenyl)-benzofuran-5-ol]"
16,177 to 182 °C,"CC(O)c1c(-c2ccc(O)cc2)oc2ccc(O)cc12 (stereo not drawn) [Example 113, 3-(1-Hydroxy-ethyl)-2-(4-hydroxy-phenyl)-benzofuran-5-ol]"
17,238 to 239 °C,"Oc1ccc(-c2cc(O)ccc2-c2cc3cc(O)ccc3o2)cc1 [Example 105, 6-(5-Hydroxy-benzofuran-2-yl)-biphenyl-3,4′-diol]"
18,265 to 267 °C,"COc1cc(O)c(C#N)c2cc(-c3ccc(O)c(F)c3)oc12 [Example 73a, 2-(3-Fluoro-4-hydroxy-phenyl)-5-hydroxy 7-methoxy-benzofuran-4-carbonitrile]"
19,221 to 223 °C,"CCOC(=O)c1cc(O)cc2cc(-c3ccc(O)cc3)oc12 [Example 39, 5-Hydroxy-2-(4-hydroxy-phenyl)-benzofuran-7-carboxylic acid ethyl ester]"
20,236 to 238 °C,"COC(=O)c1cc(O)cc2cc(-c3ccc(O)cc3)oc12 [Example 38, 5-Hydroxy-2-(4-hydroxy-phenyl)-benzofuran-7-carboxylic acid methyl ester]"
21,269 to 271 °C,"Oc1ccc(-c2cc3cc(O)cc(Cn4ccnc4)c3o2)cc1 [Example 16, 2-(4-Hydroxy-phenyl)-7-imidazol-1-ylmethyl-benzofuran-5-ol]"
22,210 to 213 °C,"Oc1ccc(-c2cc3cc(O)cc(CC(F)(F)F)c3o2)cc1 [Example 141, 2-(4-Hydroxy-phenyl)-7-(2,2,2-trifluoro-ethyl)-benzofuran-5-ol]"
23,188 to 190 °C,"CSCc1cc(O)cc2cc(-c3ccc(O)cc3)oc12 [Example 10, 2-(4-Hydroxy-phenyl)-7-methylsulfanylmethyl-benzofuran-5-ol]"
24,167 to 170 °C,"COC(=O)CCc1cc(O)cc2cc(-c3ccc(O)cc3)oc12 [Example 60, 3-[5-Hydroxy-2-(4-hydroxy-phenyl)-benzofuran-7-yl]-propionic acid methyl ester]"
25,251 to 254 °C,"Nc1cc(O)cc2cc(-c3ccc(O)cc3)oc12 [Example 100, 7-Amino-2-(4-hydroxy-phenyl)-benzofuran-5-ol]"
